Measurements from patent US20110081325A1, “NOVEL TREATMENT OF HEART DISEASES” (Axiogenesis AG, priority 2008, published 2011).

Assays:
[1] = test system: in vitro differentiated cardiomyocytes; experiment: Survival of in vitro differentiated cardiomyocytes in embryoid bodies (GFP fluorescent area); assay type: cell-based, mouse; settings: ES cell-derived cardiomyocytes, after 72 hours, fluorescent area compared with before treatment
Protocol: (§1) FIGS. 1-4: Effect of different vinca alkaloids (FIGS. 1-3) and doxorubicin (FIG. 4) on the viability and rate of survival of in vitro differentiated cardiomyocytes. EBs were generated and cardiac cells were differentiated as described in Example 1. Photomicrographs were taken before treatment and 48 and 72 hours after treatment. Fluorescent areas representing cardiac cells were measured and calculated as described in Example 2 and 3. Cor.At refers to in vitro differentiated cardiomyocytes and MEF to Mouse Embryonic Fibroblasts.
The generation of “embryoid bodies” (EBs) from high density cell suspensions and differentiation of cardiac cells was essentially performed as described in Example 1 of international application WO2005/005621, the disclosure content of which is hereby incorporated by reference in its entirety. Briefly, mouse embryonic stem cells (ES cells, clone D3, ATCC CRL 1934) were stably transfected with the paMHC-GFP vector containing the gene of the green fluorescent protein under control of the cardiac α-myosin heavy chain (α-MHC) promotor. To obtain this vector, a 5.5 kb fragment containing the promoter region of the mouse α-myosin heavy chain gene (Genbank 471441) was introduced into the polylinker of the pEGFP-1 vector (Clontech Laboratories). […]
To generate EBs, ES cells were cultured in suspension at a density of 2×10^6 cells/ml in a 6 cm petri dish (Greiner, Darmstadt, Germany) in 4 ml IMDM with 20% FCS (Invitrogen, Karlsruhe, Germany) at 37° C., 5% CO2, 95% humidity on a rocking table (GFL 3006, GFL, Braunschweig, Germany) at 50 rpm for 6 hours. […] On day 14, fluorescent areas representing cardiac cells were detected by fluorescence microscopy using a Zeiss Axiovert 200M with a 10x Achroplan objective, a HQ-filterset for GFP (AF Analysentechnik, Tubingen, Germany) and a Sensicam 12 bit cooled imaging system (PCO Imaging, Kelheim, Germany). […]

[2] = test system: in vitro differentiated cardiomyocytes; experiment: Cardiotoxic effect of doxorubicin on in vitro differentiated cardiomyocytes; assay type: cell-based, mouse; settings: according to Example 4 of WO2005/005621, FIG. 4
Protocol: as §1
Thereafter, Example 2, supra, is modified in that doxorubin (doxorubicinhydrochlorid) together with vinblastin, vincristin or vinorelbin is added at different concentrations and reversed dilution series to the cell culture.

Row | SMILES | survival of in vitro differentiated cardiomyocytes [1] | cardiotoxic effect on cardiomyocytes [2]
1 | CC[C@]1(O)C[C@H]2CN(CCc3c([nH]c4ccccc34)[C@@](C(=O)OC)(c3cc4c(cc3OC)N(C=O)[C@H]3[C@@](O)(C(=O)OC)[C@H](OC(C)=O)[C@]5(CC)C=CCN6CC[C@]43[C@@H]65)C2)C1 [vincristin] | increase survival | 
2 | CCC1=C[C@@H]2CN(C1)Cc1c([nH]c3ccccc13)[C@@](C(=O)OC)(c1cc3c(cc1OC)N(C)[C@H]1[C@@](O)(C(=O)OC)[C@H](OC(C)=O)[C@]4(CC)C=CCN5CC[C@]31[C@@H]54)C2 [vinorelbin] | increase survival | 
3 | COc1cccc2c1C(=O)c1c(O)c3c(c(O)c1C2=O)C[C@@](O)(C(=O)CO)C[C@@H]3O[C@H]1C[C@H](N)[C@H](O)[C@H](C)O1 [doxorubicin] |  | cardiotoxic effect
4 | CC[C@]1(O)C[C@@H]2CN(CCc3c([nH]c4ccccc34)[C@@](C(=O)OC)(c3cc4c(cc3OC)N(C)[C@H]3[C@@](O)(C(=O)OC)[C@H](OC(C)=O)[C@]5(CC)C=CCN6CC[C@]43[C@@H]65)C2)C1 [vinblastin] | increase survival | 
